Laboratory results reported in US10765114B2, “4-amino-6-(pyridyl and 2-substitutedphenyl)-picolinates and 6-amino-2-(pyridyl and 2-substitutedphenyl)-pyrimidine-4-carboxylates and their use as herbicides” (Dow AgroSciences LLC, priority 2013, dated 2020).

Test system: Key Broadleaf Weed and Crop Species
Assay: Post-Emergent Test II (Table 5)
Assay type: in vivo
Details: Abutilon theophrasti, post-emergence, 336 h, ABUTH: velvetleaf (Abutilon theophrasti), application rate 70 (kg ai/ha; footnote: g ai/ha), read-out: Visual Growth Reduction (%) 14 Days After Application ABUTH
Method in brief: (§1)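 Post-emergence greenhouse spray, 1st-2nd true leaf stage; track sprayer, 187 L/ha; acetone/DMSO stock diluted in aqueous acetone/IPA/DMSO with Atplus 411F and Triton X-155; rates 1× to 1/16×; subirrigated; visual injury 0 (none) to 100% (complete kill) at 14 days.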

Compound	pest or weed control at 70 g/ha [%]
COC(=O)c1nc(-c2ccc(Cl)c(Cl)c2Cl)c(F)c(N)c1Cl [Compound 12]	85 to 94

Same assay, conditions: Abutilon theophrasti, post-emergence, 336 h, ABUTH: velvetleaf (Abutilon theophrasti), application rate 140 (kg ai/ha; footnote: g ai/ha), read-out: Visual Growth Reduction (%) 14 Days After Application ABUTH

Compound	pest or weed control at 140 g/ha [%]
COC(=O)c1nc(-c2ccc(Cl)c(Cl)c2Cl)c(F)c(N)c1Cl [Compound 12]	85 to 94

Same assay, conditions: Amaranthus retroflexus, post-emergence, 336 h, AMARE: redroot pigweed (Amaranthus retroflexus), application rate 70 (kg ai/ha; footnote: g ai/ha), read-out: Visual Growth Reduction (%) 14 Days After Application AMARE

Compound	pest or weed control at 70 g/ha [%]
COC(=O)c1nc(-c2ccc(Cl)c(Cl)c2Cl)c(F)c(N)c1Cl [Compound 12]	95 to 100

Same assay, conditions: Amaranthus retroflexus, post-emergence, 336 h, AMARE: redroot pigweed (Amaranthus retroflexus), application rate 140 (kg ai/ha; footnote: g ai/ha), read-out: Visual Growth Reduction (%) 14 Days After Application AMARE

Compound	pest or weed control at 140 g/ha [%]
COC(=O)c1nc(-c2ccc(Cl)c(Cl)c2Cl)c(F)c(N)c1Cl [Compound 12]	95 to 100

Same assay, conditions: Brassica napus, post-emergence, 336 h, BRSSS: oilseed rape, canola (Brassica napus), application rate 70 (kg ai/ha; footnote: g ai/ha), read-out: Visual Growth Reduction (%) 14 Days After Application BRSSS

Compound	pest or weed control at 70 g/ha [%]
COC(=O)c1nc(-c2ccc(Cl)c(Cl)c2Cl)c(F)c(N)c1Cl [Compound 12]	75 to 84

Same assay, conditions: Brassica napus, post-emergence, 336 h, BRSSS: oilseed rape, canola (Brassica napus), application rate 140 (kg ai/ha; footnote: g ai/ha), read-out: Visual Growth Reduction (%) 14 Days After Application BRSSS

Compound	pest or weed control at 140 g/ha [%]
COC(=O)c1nc(-c2ccc(Cl)c(Cl)c2Cl)c(F)c(N)c1Cl [Compound 12]	75 to 84

Same assay, conditions: Chenopodium album, post-emergence, 336 h, CHEAL: lambsquarters (Chenopodium album), application rate 70 (kg ai/ha; footnote: g ai/ha), read-out: Visual Growth Reduction (%) 14 Days After Application CHEAL

Compound	pest or weed control at 70 g/ha [%]
COC(=O)c1nc(-c2ccc(Cl)c(Cl)c2Cl)c(F)c(N)c1Cl [Compound 12]	85 to 94

Same assay, conditions: Chenopodium album, post-emergence, 336 h, CHEAL: lambsquarters (Chenopodium album), application rate 140 (kg ai/ha; footnote: g ai/ha), read-out: Visual Growth Reduction (%) 14 Days After Application CHEAL

Compound	pest or weed control at 140 g/ha [%]
COC(=O)c1nc(-c2ccc(Cl)c(Cl)c2Cl)c(F)c(N)c1Cl [Compound 12]	85 to 94

Same assay, conditions: Euphorbia heterophylla, post-emergence, 336 h, EPHHL: wild poinsettia (Euphorbia heterophylla), application rate 70 (kg ai/ha; footnote: g ai/ha), read-out: Visual Growth Reduction (%) 14 Days After Application EPHHL

Compound	pest or weed control at 70 g/ha [%]
COC(=O)c1nc(-c2ccc(Cl)c(Cl)c2Cl)c(F)c(N)c1Cl [Compound 12]	75 to 84

Same assay, conditions: Euphorbia heterophylla, post-emergence, 336 h, EPHHL: wild poinsettia (Euphorbia heterophylla), application rate 140 (kg ai/ha; footnote: g ai/ha), read-out: Visual Growth Reduction (%) 14 Days After Application EPHHL

Compound	pest or weed control at 140 g/ha [%]
COC(=O)c1nc(-c2ccc(Cl)c(Cl)c2Cl)c(F)c(N)c1Cl [Compound 12]	75 to 84

Same assay, conditions: Helianthus annuus, post-emergence, 336 h, HELAN: sunflower (Helianthus annuus), application rate 70 (kg ai/ha; footnote: g ai/ha), read-out: Visual Growth Reduction (%) 14 Days After Application HELAN

Compound	pest or weed control at 70 g/ha [%]
COC(=O)c1nc(-c2ccc(Cl)c(Cl)c2Cl)c(F)c(N)c1Cl [Compound 12]	85 to 94

Same assay, conditions: Helianthus annuus, post-emergence, 336 h, HELAN: sunflower (Helianthus annuus), application rate 140 (kg ai/ha; footnote: g ai/ha), read-out: Visual Growth Reduction (%) 14 Days After Application HELAN

Compound	pest or weed control at 140 g/ha [%]
COC(=O)c1nc(-c2ccc(Cl)c(Cl)c2Cl)c(F)c(N)c1Cl [Compound 12]	85 to 94

Same assay, conditions: Viola tricolor, post-emergence, 336 h, VIOTR: wild pansy (Viola tricolor), application rate 70 (kg ai/ha; footnote: g ai/ha), read-out: Visual Growth Reduction (%) 14 Days After Application VIOTR

Compound	pest or weed control at 70 g/ha [%]
COC(=O)c1nc(-c2ccc(Cl)c(Cl)c2Cl)c(F)c(N)c1Cl [Compound 12]	0 to 29

Same assay, conditions: Viola tricolor, post-emergence, 336 h, VIOTR: wild pansy (Viola tricolor), application rate 140 (kg ai/ha; footnote: g ai/ha), read-out: Visual Growth Reduction (%) 14 Days After Application VIOTR

Compound	pest or weed control at 140 g/ha [%]
COC(=O)c1nc(-c2ccc(Cl)c(Cl)c2Cl)c(F)c(N)c1Cl [Compound 12]	0 to 29

Test system: Key Grass and Sedge Weeds as well as Grass Crops
Assay: Post-Emergent Test II (Table 6)
Assay type: in vivo
Details: post-emergence, 336 h, CYPSS, 70 g ai/ha, 14 days after application, read-out: Visual Growth Reduction (%) 14 Days After Application CYPSS
Method in brief: as §1

Compound	pest or weed control at 70 g/ha [%]
COC(=O)c1nc(-c2ccc(Cl)c(Cl)c2Cl)c(F)c(N)c1Cl [Compound 12]	0 to 29

Same assay, conditions: post-emergence, 336 h, CYPSS, 140 g ai/ha, 14 days after application, read-out: Visual Growth Reduction (%) 14 Days After Application CYPSS

Compound	pest or weed control at 140 g/ha [%]
COC(=O)c1nc(-c2ccc(Cl)c(Cl)c2Cl)c(F)c(N)c1Cl [Compound 12]	45 to 59

Same assay, conditions: post-emergence, 336 h, DIGSA: crabgrass (Digitaria sanguinalis), 70 g ai/ha, 14 days after application, read-out: Visual Growth Reduction (%) 14 Days After Application DIGSA

Compound	pest or weed control at 70 g/ha [%]
COC(=O)c1nc(-c2ccc(Cl)c(Cl)c2Cl)c(F)c(N)c1Cl [Compound 12]	30 to 44

Same assay, conditions: post-emergence, 336 h, DIGSA: crabgrass (Digitaria sanguinalis), 140 g ai/ha, 14 days after application, read-out: Visual Growth Reduction (%) 14 Days After Application DIGSA

Compound	pest or weed control at 140 g/ha [%]
COC(=O)c1nc(-c2ccc(Cl)c(Cl)c2Cl)c(F)c(N)c1Cl [Compound 12]	45 to 59

Same assay, conditions: post-emergence, 336 h, ECHSS, 70 g ai/ha, 14 days after application, read-out: Visual Growth Reduction (%) 14 Days After Application ECHSS

Compound	pest or weed control at 70 g/ha [%]
COC(=O)c1nc(-c2ccc(Cl)c(Cl)c2Cl)c(F)c(N)c1Cl [Compound 12]	0 to 29

Same assay, conditions: post-emergence, 336 h, ECHSS, 140 g ai/ha, 14 days after application, read-out: Visual Growth Reduction (%) 14 Days After Application ECHSS

Compound	pest or weed control at 140 g/ha [%]
COC(=O)c1nc(-c2ccc(Cl)c(Cl)c2Cl)c(F)c(N)c1Cl [Compound 12]	0 to 29

Same assay, conditions: post-emergence, 336 h, ORYSS (crop), 70 g ai/ha, 14 days after application, read-out: Visual Growth Reduction (%) 14 Days After Application ORYSS

Compound	pest or weed control at 70 g/ha [%]
COC(=O)c1nc(-c2ccc(Cl)c(Cl)c2Cl)c(F)c(N)c1Cl [Compound 12]	0 to 29

Same assay, conditions: post-emergence, 336 h, ORYSS (crop), 140 g ai/ha, 14 days after application, read-out: Visual Growth Reduction (%) 14 Days After Application ORYSS

Compound	pest or weed control at 140 g/ha [%]
COC(=O)c1nc(-c2ccc(Cl)c(Cl)c2Cl)c(F)c(N)c1Cl [Compound 12]	0 to 29

Same assay, conditions: post-emergence, 336 h, SETFA: giant foxtail (Setaria faberi), 70 g ai/ha, 14 days after application, read-out: Visual Growth Reduction (%) 14 Days After Application SETFA

Compound	pest or weed control at 70 g/ha [%]
COC(=O)c1nc(-c2ccc(Cl)c(Cl)c2Cl)c(F)c(N)c1Cl [Compound 12]	45 to 59

Same assay, conditions: post-emergence, 336 h, SETFA: giant foxtail (Setaria faberi), 140 g ai/ha, 14 days after application, read-out: Visual Growth Reduction (%) 14 Days After Application SETFA

Compound	pest or weed control at 140 g/ha [%]
COC(=O)c1nc(-c2ccc(Cl)c(Cl)c2Cl)c(F)c(N)c1Cl [Compound 12]	45 to 59

Same assay, conditions: post-emergence, 336 h, SORVU: grain sorghum (Sorghum vulgare), 70 g ai/ha, 14 days after application, read-out: Visual Growth Reduction (%) 14 Days After Application SORVU

Compound	pest or weed control at 70 g/ha [%]
COC(=O)c1nc(-c2ccc(Cl)c(Cl)c2Cl)c(F)c(N)c1Cl [Compound 12]	0 to 29

Same assay, conditions: post-emergence, 336 h, SORVU: grain sorghum (Sorghum vulgare), 140 g ai/ha, 14 days after application, read-out: Visual Growth Reduction (%) 14 Days After Application SORVU

Compound	pest or weed control at 140 g/ha [%]
COC(=O)c1nc(-c2ccc(Cl)c(Cl)c2Cl)c(F)c(N)c1Cl [Compound 12]	30 to 44

Same assay, conditions: post-emergence, 336 h, TRZSS (crop), 70 g ai/ha, 14 days after application, read-out: Visual Growth Reduction (%) 14 Days After Application TRZSS

Compound	pest or weed control at 70 g/ha [%]
COC(=O)c1nc(-c2ccc(Cl)c(Cl)c2Cl)c(F)c(N)c1Cl [Compound 12]	0 to 29

Same assay, conditions: post-emergence, 336 h, TRZSS (crop), 140 g ai/ha, 14 days after application, read-out: Visual Growth Reduction (%) 14 Days After Application TRZSS

Compound	pest or weed control at 140 g/ha [%]
COC(=O)c1nc(-c2ccc(Cl)c(Cl)c2Cl)c(F)c(N)c1Cl [Compound 12]	0 to 29

Same assay, conditions: post-emergence, 336 h, ZEAMX: maize, corn (Zea mays), 70 g ai/ha, 14 days after application, read-out: Visual Growth Reduction (%) 14 Days After Application ZEAMX

Compound	pest or weed control at 70 g/ha [%]
COC(=O)c1nc(-c2ccc(Cl)c(Cl)c2Cl)c(F)c(N)c1Cl [Compound 12]	75 to 84

Test system: not given
Assay: not given
Details: not given

melting point [°C]	Compound
195 to 196	COC(=O)c1nc(-c2ccc(Cl)c(Cl)c2Cl)c(F)c(N)c1Cl [Compound 12]
